# Data: patent publication US8026359B2, “Fungicidal heterocyclic amines” (E.I. du Pont de Nemours and Company, priority 2007, dated 2011)
# Legend:
# Format in all cases: in vivo
# [1] = test system: Erysiphe graminis f. sp. tritici; assay: Test A: wheat powdery mildew, preventive spray on wheat seedlings; conditions: 200 ppm, 100 = 100% disease control, 0 = no control relative to controls; for pest or weed control at 200 ppm: Blumeria graminis, 192 h, read-out: Test A disease control rating
# Source text: (§1) General protocol for preparing test suspensions for Tests A-R: The test compounds were first dissolved in acetone in an amount equal to 3% of the final volume and then suspended at the desired concentration (in ppm) in acetone and purified water (50/50 mix) containing 250 ppm of the surfactant Trem® 014 (polyhydric alcohol esters). The resulting test suspensions were then used in tests A-R. In Tests A-M, compounds were sprayed as a 200 ppm test suspension (equivalent to a rate of 500 g/ha) or as a 40 ppm test suspension to the point of runoff on the test plants. In Tests N-R, compounds were sprayed as a 100 g/ha test suspension (equivalent to a rate of 100 ppm) on the test plants at an application volume of 1000 L/ha. The test suspension was sprayed to the point of run-off on wheat seedlings.
# [2] = test system: Puccinia recondita f. sp. tritici; assay: Test B: wheat leaf rust, preventive spray on wheat seedlings; conditions: 200 ppm, 100 = 100% disease control, 0 = no control relative to controls; for pest or weed control at 200 ppm: Puccinia recondita, 192 h, read-out: Test B disease control rating
# Source text: as §1
# Septoria nodorum = assay: Test C: wheat glume blotch, preventive spray on wheat seedlings; conditions: 200 ppm, 100 = 100% disease control, 0 = no control relative to controls; for pest or weed control at 200 ppm: Parastagonospora nodorum, 216 h, read-out: Test C disease control rating
# Source text: as §1
# Septoria tritici = assay: Test D: wheat leaf blotch, preventive spray on wheat seedlings; conditions: 200 ppm, 100 = 100% disease control, 0 = no control relative to controls; for pest or weed control at 200 ppm: Zymoseptoria tritici, 504 h, read-out: Test D disease control rating
# Source text: as §1
# Fusarium graminearum = assay: whole plant or invertebrate; conditions: for Test E disease control rating: 200 ppm, 100 = 100% disease control, 0 = no control relative to controls; for pest or weed control at 200 ppm: Fusarium graminearum, in Triticum aestivum, 192 h, read-out: Test E disease control rating
# Botrytis cinerea = assay: Test F: tomato Botrytis, preventive spray on tomato seedlings; conditions: 200 ppm, 100 = 100% disease control, 0 = no control relative to controls; for pest or weed control at 200 ppm: Botrytis cinerea, 120 h, read-out: Test F disease control rating
# Source text: as §1, with “tomato” for “wheat”
# [3] = test system: Colletotrichum orbiculare; assay: Test I: cucumber Colletotrichum anthracnose, preventive spray on cucumber seedlings; conditions: 100 = 100% disease control, 0 = no control relative to controls; for Test I disease control rating: 200 ppm; for pest or weed control at 200 ppm: Colletotrichum orbiculare, 144 h, read-out: Test I disease control rating
# Source text: as §1, with “cucumber” for “wheat”
Compound,Test A disease control rating [1],Test B disease control rating [2],Test C disease control rating (Septoria nodorum),Test D disease control rating (Septoria tritici),Test E disease control rating (Fusarium graminearum),Test F disease control rating (Botrytis cinerea),Test I disease control rating [3],pest or weed control at 200 ppm [1],pest or weed control at 200 ppm [2],pest or weed control at 200 ppm (Septoria nodorum),pest or weed control at 200 ppm (Septoria tritici),pest or weed control at 200 ppm (Fusarium graminearum),pest or weed control at 200 ppm (Botrytis cinerea),pest or weed control at 200 ppm [3]
Fc1cccc(Nc2ncnc(-c3ccnc(NC4CCOCC4)n3)n2)c1 [Compound 3],64%,96%,100%,67%,27%,0%,94%,–,–,–,–,–,–,–
"Clc1cccc(Nc2ncnc(-c3ccnc(NC4CCOCC4)n3)n2)c1 [Compound 4, N-(3-chlorophenyl)-4-[2-[(tetrahydro-2H-pyran-4-yl)amino]-4-pyrimidinyl]-1,3,5-triazin-2-amine]",–,–,–,–,–,–,–,0%,91%,99%,11%,0%,0%,66%
COC[C@H](C)Nc1nccc(-c2ncnc(Nc3cncc(F)c3)n2)n1 [Compound 35],72%,100%,98%,7%,98%,91%,–,–,–,–,–,–,–,–
COCC(C)Nc1nccc(-c2ccnc(Nc3cccc(C(=O)OC)c3)c2)n1 (centres unmarked) [Compound 52],0%,94%,90%,31%,0%,98%,0%,–,–,–,–,–,–,–
COCC(C)Nc1nccc(-c2ccnc(Nc3ccccc3F)c2)n1 (centres unmarked) [Compound 53],88%,98%,96%,41%,0%,99%,26%,–,–,–,–,–,–,–
COCC(C)Nc1nccc(-c2ccnc(Nc3ccnc(Cl)c3)c2)n1 (centres unmarked) [Compound 54],0%,96%,64%,35%,0%,85%,0%,–,–,–,–,–,–,–
CSCCNc1nccc(-c2ccnc(Nc3cccc(F)c3)c2)n1 [Compound 55],0%,95%,78%,20%,0%,0%,0%,–,–,–,–,–,–,–
C[C@H](CO)Nc1nccc(-c2ccnc(Nc3cccc(F)c3)c2)n1 [Compound 57],0%,95%,51%,9%,0%,0%,0%,–,–,–,–,–,–,–
COCCNc1nccc(-c2ccnc(Nc3cccc(F)c3)c2)n1 [Compound 58],44%,98%,99%,36%,0%,86%,24%,–,–,–,–,–,–,–
CCCC(C)Nc1nccc(-c2ccnc(Nc3cccc(F)c3)c2)n1 (centres unmarked) [Compound 59],87%,–,99%,0%,0%,57%,0%,–,–,–,–,–,–,–
CC(C)Nc1nccc(-c2ccnc(Nc3cccc(F)c3)c2)n1 [Compound 60],97%,95%,100%,18%,0%,61%,0%,–,–,–,–,–,–,–
CCNc1nccc(-c2ccnc(Nc3cccc(F)c3)c2)n1 [Compound 61],0%,96%,99%,32%,0%,0%,0%,–,–,–,–,–,–,–
"Fc1cccc(Nc2cc(-c3ccnc(NC4CCCC4)n3)ccn2)c1 [Compound 62, N-cyclopentyl-4-[2-[(3-fluorophenyl)amino]-4-pyridinyl]-2-pyrimidinamine]",–,–,–,–,–,–,–,0%,94%,0%,14%,0%,0%,0%
COCC(C)Nc1nccc(-c2ccnc(Nc3ccc(C#N)cc3)c2)n1 (centres unmarked) [Compound 63],0%,80%,0%,41%,0%,0%,90%,–,–,–,–,–,–,–
COCCCNc1nccc(-c2ccnc(Nc3cccc(F)c3)c2)n1 [Compound 64],0%,94%,97%,95%,0%,0%,92%,–,–,–,–,–,–,–
Fc1cccc(Nc2cc(-c3ccnc(NC4CC4)n3)ccn2)c1 [Compound 65],46%,80%,96%,0%,0%,0%,83%,–,–,–,–,–,–,–
CCNNc1nccc(-c2ccnc(Nc3cccc(F)c3)c2)n1 [Compound 66],0%,85%,99%,92%,64%,84%,–,–,–,–,–,–,–,–
COC[C@@H](C)Nc1nccc(-c2ccnc(Nc3cccc(F)c3)c2)n1 [Compound 68],0%,95%,99%,96%,0%,93%,–,–,–,–,–,–,–,–
"Clc1cccc(Nc2cc(-c3ccnc(NC4CCOCC4)n3)ccn2)c1 [Compound 69, 4-[2-[(3-chlorophenyl)amino]-4-pyridinyl]-N-(tetrahydro-2H-pyran-4-yl)-2-pyrimidinamine]",–,–,–,–,–,–,–,91%,94%,97%,77%,0%,85%,0%
COCC(C)Nc1nccc(-c2ccnc(Nc3c(F)ccc(F)c3F)c2)n1 (centres unmarked) [Compound 70],95%,98%,99%,17%,84%,97%,98%,–,–,–,–,–,–,–
Fc1cccc(Nc2cc(-c3ccnc(N[C@H]4CCOC4)n3)ccn2)c1 [Compound 71],0%,94%,99%,25%,0%,77%,46%,–,–,–,–,–,–,–
